Test systems include KM12 colon; M14 melanoma; MDA-MB-435; OVCAR-3 ovarian; SF-295 CNS; SK-MEL-28 melanoma; MDA-N; LOX IMVI melanoma; UO-31 renal; SF-539 CNS.
Common to all, as to assay: inhibition of tumour cell growth, NCI panel, 48 h

Among the data in PubChem BioAssay (NCI) are TGI values, retold here.

SMILES strings stand for the structures.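 Exposure lasted 48 hours, with cells grown in 96-well plates and compounds tested at five concentrations. TGI denotes the concentration required for complete inhibition of growth.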

Take `NC1=Nc2ncccc2C(=O)NN1`: the TGI in the test with KM12 colon, in the test on M14 melanoma, with MDA-MB-435, in the test on OVCAR-3 ovarian, in the test with SF-295 CNS and with SK-MEL-28 melanoma was more than 10 µM throughout. Also, the TGI in the test on MDA-N, in the test with LOX IMVI melanoma, with UO-31 renal and in the test on SF-539 CNS was more than 10 µM throughout.

Take `CC[C@@]1(O)C(=O)OCc2c1cc1n(c2=O)Cc2c-1nc1ccc(N)cc1c2CC[Si](C)(C)C`: the TGI in the test with KM12 colon was 3.68 µM; in the test on M14 melanoma, less than 0.0499 µM; in the test with MDA-MB-435 it was 4.54 µM; in the test on OVCAR-3 ovarian, 0.797 µM; in the test on SF-295 CNS it was less than 0.0417 µM; with SK-MEL-28 melanoma, 13.8 µM. In addition, the TGI is 1.62 µM with MDA-N, less than 0.01 µM with LOX IMVI melanoma, less than 0.0173 µM with UO-31 renal and less than 0.01 µM in the test with SF-539 CNS.

For `CCOC(=O)c1cccc(N=NNc2cccc(C(=O)OCC)c2)c1`, the TGI in the test with KM12 colon was more than 100 µM; in the test with M14 melanoma it was more than 100 µM; in the test with MDA-MB-435, more than 100 µM; in the test on OVCAR-3 ovarian, 93.9 µM; with SF-295 CNS, 45.4 µM; in the test on SK-MEL-28 melanoma, more than 100 µM. The TGI was more than 100 µM in the test on MDA-N, more than 100 µM in the test with LOX IMVI melanoma, 45.6 µM in the test with UO-31 renal and 36.6 µM in the test with SF-539 CNS.

Consider `O=C1c2ccccc2CC12Cc1ccc3c(c1C2=O)CCCC3` (stereo not drawn), for which the TGI in the test with KM12 colon, in the test on M14 melanoma, with MDA-MB-435, in the test with OVCAR-3 ovarian, in the test with SF-295 CNS and with SK-MEL-28 melanoma was more than 100 µM each time. Also, the TGI in the test with MDA-N, in the test with LOX IMVI melanoma, in the test with UO-31 renal and in the test with SF-539 CNS was more than 100 µM each time.

Consider `C=CCSC1=N/C(=C\c2ccc(C)cc2)C(=O)N1CC=C`, for which the TGI is 69.1 µM in the test on KM12 colon; more than 100 µM with M14 melanoma; 98.8 µM with MDA-MB-435; more than 100 µM in the test with OVCAR-3 ovarian; more than 100 µM in the test with SF-295 CNS; more than 100 µM in the test with SK-MEL-28 melanoma. Besides, the TGI with MDA-N is 45.1 µM; in the test on LOX IMVI melanoma, 82.3 µM; with UO-31 renal it was 84.4 µM; in the test on SF-539 CNS, more than 100 µM.

Turning to `CC(C)=CC(=O)c1[nH]c2ccccc2c1CC(=O)NCCc1cnc[nH]1`, the TGI in the test with KM12 colon, with M14 melanoma, with MDA-MB-435, in the test with OVCAR-3 ovarian, in the test on SF-295 CNS and in the test with SK-MEL-28 melanoma was more than 100 µM throughout. Besides, the TGI in the test with MDA-N, with LOX IMVI melanoma, with UO-31 renal and in the test on SF-539 CNS was more than 100 µM throughout.

For the molecule `NS(=O)(=O)c1ccc(Nc2c3ccccc3nc3c(C(=O)NC(CO)(CO)CO)cccc23)cc1`, the TGI was 0.309 µM in the test on KM12 colon; 0.39 µM in the test on M14 melanoma; 0.558 µM in the test with MDA-MB-435; 0.339 µM in the test on OVCAR-3 ovarian; more than 1 µM with SF-295 CNS; 0.576 µM in the test with SK-MEL-28 melanoma. Further, the TGI came out at 0.862 µM in the test with MDA-N, 0.286 µM in the test with LOX IMVI melanoma, 0.366 µM with UO-31 renal and 0.407 µM with SF-539 CNS.

Regarding `O=C1CC2(CCN(Cc3ccccc3)CC2)C(=O)N1N1CCCCC1`, the TGI with KM12 colon, with M14 melanoma, in the test on MDA-MB-435, in the test with OVCAR-3 ovarian, with SF-295 CNS and with SK-MEL-28 melanoma was more than 100 µM each time. The TGI in the test with MDA-N, in the test on LOX IMVI melanoma, with UO-31 renal and with SF-539 CNS was more than 100 µM in each case.

For `Cc1ccc(NC(c2ccccc2)P(=O)(c2ccccc2)c2ccccc2)cc1` (stereo not drawn), the TGI in the test on KM12 colon, in the test with M14 melanoma, in the test on MDA-MB-435, in the test with OVCAR-3 ovarian, with SF-295 CNS and with SK-MEL-28 melanoma was more than 100 µM throughout. Also, the TGI in the test with MDA-N, in the test with LOX IMVI melanoma, in the test on UO-31 renal and in the test on SF-539 CNS was more than 100 µM throughout.

For the molecule `O=C(O)COc1c(Cl)cc(Cl)c(C(c2c(Cl)cc(Cl)c(OCC(=O)O)c2Cl)C(Cl)(Cl)Cl)c1Cl`, the TGI is more than 100 µM in the test with KM12 colon; 46.8 µM in the test with M14 melanoma; 78.2 µM in the test on MDA-MB-435; 51.9 µM in the test with SF-295 CNS; more than 100 µM with SK-MEL-28 melanoma; more than 100 µM in the test on MDA-N. The results for the TGI in the test on LOX IMVI melanoma, in the test on UO-31 renal and in the test on SF-539 CNS were more than 100 µM, 55.2 µM and more than 100 µM, respectively.

`O=c1[nH]nc(-c2cccc([N+](=O)[O-])c2)[nH]1`: the TGI in the test on KM12 colon, in the test on M14 melanoma, in the test with MDA-MB-435, in the test on OVCAR-3 ovarian, in the test on SF-295 CNS and with SK-MEL-28 melanoma was more than 100 µM each time. For the same molecule, the TGI in the test with MDA-N, with LOX IMVI melanoma, in the test on UO-31 renal and with SF-539 CNS was more than 100 µM in each case.

Consider `O=C1c2cccc3cc([N+](=O)[O-])cc(c23)C(=O)N1c1ccc(OCCN2CCCC2)cc1`, for which the TGI with KM12 colon was more than 100 µM; in the test with M14 melanoma, 47.1 µM; in the test with MDA-MB-435, 45.1 µM; with SF-295 CNS it was 41.1 µM; in the test with SK-MEL-28 melanoma it was 45.9 µM; in the test on MDA-N it was 80.3 µM. The TGI in the test on LOX IMVI melanoma was found to be 34.6 µM; with UO-31 renal, 27.1 µM; in the test on SF-539 CNS, 29.5 µM.

As for `O=C(Cn1c(=O)oc2ccccc21)N(c1ccccc1)c1ccccc1`, the TGI with KM12 colon, with M14 melanoma, in the test on MDA-MB-435, in the test with OVCAR-3 ovarian, in the test on SF-295 CNS and in the test on SK-MEL-28 melanoma was more than 100 µM throughout. The TGI in the test on MDA-N, in the test with LOX IMVI melanoma, in the test with UO-31 renal and in the test on SF-539 CNS was more than 100 µM each time.

Consider `C1CCC(CC2CCC(NC3=NCCO3)CC2)CC1` (stereo not drawn), for which the TGI in the test on KM12 colon is 32.7 µM; with M14 melanoma, 33.8 µM; in the test with MDA-MB-435, 32.3 µM; in the test with OVCAR-3 ovarian it was 30.6 µM; in the test with SF-295 CNS it was 36 µM; in the test on SK-MEL-28 melanoma it was 33.2 µM. Besides, the TGI in the test with MDA-N came to 35.9 µM; with LOX IMVI melanoma, 30.9 µM; with UO-31 renal it was 35.9 µM; in the test with SF-539 CNS it was 31.1 µM.
